# Reference: patent US9096832B2, “Differentiation of human embryonic stem cells” (LifeScan, Inc., priority 2007, dated 2015)
# How the values were obtained:
# [1] = tested on: H7P44 and H9P46 embryonic stem cells; assay: Definitive endoderm on […]: role of Wnt ligands (FACS CXCR4, real-time PCR); assay type: cell-based, human
# Description: In some of the cultures 20 ng/ml Wnt-3a (Catalog#1324-WN-002, R&D Systems, MN), 20 ng/ml Wnt-5a (Catalog#654-WN-010, R&D Systems, MN), 25 ng/ml Wnt-7a (Catalog#3008-WN-025, R&D Systems, MN), or 25 ng/ml Wnt-5b (Catalog#3006-WN-025, R&D Systems, MN) was added throughout the five day treatment. FIG. 24 depicts phase contrast images of H9P46 definitive endoderm culture in the presence of high concentration of (a) AA or (b) AA+20 ng/ml Wnt-3a. FIG. 25 depicts the expression of CXCR4 by FACS at day 5 for H7P44, and H9P46 lines cultured on […]™ (1:30 dilution) and exposed to the DE protocol+Wnt-3a (FIG. 25, panels b and d) and −Wnt-3a (FIG. 25, panels a and c).
# [2] = tested on: H9P46 embryonic stem cells; assay: Definitive endoderm on […]: effective dose of Wnt-3a (FACS, PCR, cell number); assay type: cell-based, human
# Description: Control cultures were not treated with Wnt-3a. FIG. 27, panel a depicts the expression of CXCR4 by FACS at day 5 in the absence of Wnt-3a, b) 10 ng/ml Wnt-3a, c) 20 ng/ml Wnt-3a and d) 50 ng/ml Wnt-3a. In the absence of Wnt-3a the expression of CXCR4 was very low. […] Real-time PCR results (FIG. 28, panel a) also confirm this finding.
# In a separate study, H9p52 cells were plated on 1:30 low growth factor […]™. For the first 2 days of the DE protocol a range of Wnt-3a doses was used: 10 ng/ml, 5 ng/ml and 1 ng/ml. […] The number of cells at the end of the experiment is noted in FIG. 28, panel c.
# [3] = tested on: SA002 P38 cells; assay: Differentiation of SA002 ES line on […] to definitive endoderm (real-time PCR, FACS); assay type: cell-based, human; settings: 20 ng/ml Wnt-3a with 100 ng/ml activin A
# Text: Expression of CXCR4 is depicted in FIG. 45: a) AA treatment b) AA+Wnt-3a c) AA+GSK-3B inhibitor.
# [4] = tested on: human embryonic stem cell line H7; assay: FACS of protein markers after activin A treatment (Table IIB); assay type: cell-based
# Text: (§1) The level of expression of definitive endoderm markers was examined by PCR (FIG. 1), FACS (results summarized in Table II), and immunohistochemistry (FIG. 2).
# (§2) CXCR4 positive cells were also highly positive for C-kit, EPCAM, CD99, and negative for CD9. The expression pattern for these markers was consistent among all three hES cell lines examined (Table IIB for H7 and Table IIC for H1). […] In parallel, almost 100% of the differentiated cells were […] (FIG. 2).
# (§3) Adhered cells were removed from culture plates by five-minute incubation with TrypLE™ Express solution (Invitrogen, CA). Released cells were resuspended in human embryonic stem cell culture medium and recovered by centrifugation, followed by washing and resuspending the cells in a staining buffer consisting of 2% BSA, 0.05% sodium azide in PBS (Sigma, MO). As appropriate, the cells were Fc-receptor blocked for 15 minutes using a 0.1% γ-globulin (Sigma) solution. […] Controls included appropriate isotype matched antibodies, unstained cells, and cells stained only with secondary conjugated antibody. All incubations with antibodies were performed for 30 mins at 4° C. after which the cells were washed with the staining buffer. Samples that were stained with unconjugated primary antibodies were incubated for an additional 30 mins at 4° C. with secondary conjugated PE or —APC labeled antibodies. See Table I for a list of secondary antibodies used. Washed cells were pelleted and resuspended in the staining buffer, and the cell surface molecules were identified using a FACS Array (BD Biosciences) instrument, collecting at least 10,000 events.
# [5] = tested on: human embryonic stem cell line H1; assay: FACS of protein markers after activin A treatment (Table IIC); assay type: cell-based; settings: 5-day AA treatment
# Text: as §1, §2, §3
# [6] = tested on: human embryonic stem cell line H9; assay: CXCR4 expression by FACS, Activin A +/- Wnt3a, Example 34; assay type: cell-based; settings: end of the 5th day, H9 passage 54
# Description: The effect that Wnt-3a treatment has on cytokine expression was analyzed using a protein array. Cells of the human embryonic stem cell line H9 were cultured according to the methods described in Example 15. At passage 54, cells were differentiated in the presence of 100 ng/mlActivinA+/−10 ng/mlWnt3a for 2 days in 0.5% FBS DMEM/F12.
# At the end of the 5th day, CXCR4 expression was determined by FACS for each treatment group.
substance,measurement,setting,value
Wnt-3a,expression of CXCR4 (CD184) by FACS,"[1]; 20 ng/ml Wnt-3a in DE cultures, day 5, H7P44 and H9P46",robust expression
same,expression of definitive endoderm markers (real-time PCR),"[1]; low serum+AA+/-Wnt ligands, H7 and H9, five days",significant up regulation
same,number of CXCR4 positive cells,"[2]; 10-50 ng/ml Wnt-3a, day 5",significantly increased
same,Wnt3a dose sufficient to reach optimal cell expansion and definitive endoderm differentiation,"[2]; for 2 days, H9p52 on 1:30 low growth factor MATRIGEL",10 ng/mL
same,expression of DE markers in SA002 line,[3],required addition of Wnt-3A for robust expression
"Activin A: activin A (a member of the TGFβ superfamily), R&D Systems; 'w/o wnt' in Table VII = 100 ng/ml Activin A without Wnt3a",CXCR4+,[4]; 1-day AA 100 ng/ml,6%
same,CXCR4+ C-Kit+,[4]; 1-day AA 100 ng/ml,2.97%
same,CXCR4+ CD9+,[4]; 1-day AA 100 ng/ml,8.13%
same,CXCR4+ EPCAM+,[4]; 1-day AA 100 ng/ml,14.58%
same,CXCR4+,[4]; 3-day AA 100 ng/ml,38%
same,CXCR4+ C-Kit+,[4]; 3-day AA 100 ng/ml,31.56%
same,CXCR4+ CD9+,[4]; 3-day AA 100 ng/ml,24.11%
same,CXCR4+ EPCAM+,[4]; 3-day AA 100 ng/ml,36.67%
same,CXCR4+,[4]; 5-day AA 100 ng/ml,65.5%
same,CXCR4+ C-Kit+,[4]; 5-day AA 100 ng/ml,55.21%
same,CXCR4+ CD9+,[4]; 5-day AA 100 ng/ml,2.1%
same,CXCR4+ EPCAM+,[4]; 5-day AA 100 ng/ml,54.5%
same,CXCR4+,[5],92.78%
same,CXCR4+/C-kit+,[5],92.90%
same,CXCR4+/CD9+,[5],7.03%
same,CXCR4+/CD99+,[5],88.78%
same,CXCR4+/EPCAM,[5],87.99%
same,cells expressing CXCR4 (FACS),[6],1%
